Experiment [1] relates to Klebsiella pneumoniae PC1602. Kind of experiment: Minimal inhibitory concentration, agar dilution method. The experiment is classed as cell-based. An excerpt: (§1) When determined according to the agar dilution method, the penicillins (I) afford the minimal inhibitory concentrations against test microorganisms as shown in Table 2.
For orientation: Agar dilution tests growth on a series of plates holding different concentrations.

The test system of a further experiment is Pseudomonas. To be noted: literature, words; cited from earlier work.
Experiment [2] concerns gram-positive and gram-negative bacteria. As to conditions: literature, words; cited from earlier work.
Experiment [3] concerns Pseudomonas aeruginosa 104. The experiment is described as follows: Minimal inhibitory concentration, agar dilution method. The experiment is classed as cell-based.
Source text: as §1

The test system of a further experiment is Escherichia coli NIHJ. The experiment is described as above. The experiment is classed as cell-based.
Source text: as §1

Experiment [4] has as its system Staphylococcus aureus 209P. Described as above. The experiment is classed as cell-based.
Source text: as §1

The subject of the next experiment is Proteus miravilis GN2425. Described as above. The experiment is classed as cell-based.

Values after ≈ are worked out from the molar mass of the structure shown.

With `CC1(C)S[C@@H]2C(NC(=O)C(N)c3ccc(O)cc3)C(=O)N2[C@H]1C(=O)O` (stereo partly drawn) [Amoxycillin, 6-(α-amino-p-hydroxyphenylacetamido)penicillanic acid], in experiment [1], the minimal inhibitory concentration (MIC) is over 200 µg/mL. Further, the “antimicrobial activity against Pseudomonas” value (from here on “antimicrobial activity”) in the experiment with Pseudomonas is recorded as “do not exert any appreciable antimicrobial activity against Pseudomonas”. The “inhibition of growth of gram-positive and gram-negative bacteria” value (“inhibition” below) in experiment [2] is “inhibit the growth of various gram-positive and gram-negative bacteria”.
Regarding “6 -(α-amino-isothiazolylacetamido)penicillanic acid”, the “antimicrobial activity” value with Pseudomonas is listed as “do not exert any appreciable antimicrobial activity against Pseudomonas”. For the same compound, in experiment [2], the “inhibition” value is “inhibit the growth of various gram-positive and gram-negative bacteria”.
`CC1(C)S[C@@H]2[C@H](NC(=O)[C@H](N)C3=CCC=CC3)C(=O)N2[C@H]1C(=O)O` [Epicillin, 6-[α-amino-2-(1,4-hexadienylacetamido)]penicillanic acid]: the “antimicrobial activity” value in the experiment with Pseudomonas is recorded as “do not exert any appreciable antimicrobial activity against Pseudomonas”. Moreover, in experiment [2], the “inhibition” value was “inhibit the growth of various gram-positive and gram-negative bacteria”.
Take `CC1(C)S[C@@H]2[C@H](NC(=O)C3(N)CCCCC3)C(=O)N2[C@H]1C(=O)O` [Cyclacillin, 6-(1-amino-cyclohexane)carboxamidopenicillanic acid]: the “antimicrobial activity” value with Pseudomonas is on record as “do not exert any appreciable antimicrobial activity against Pseudomonas”. For the same compound, in experiment [2], the “inhibition” value was “inhibit the growth of various gram-positive and gram-negative bacteria”.
“6-(α-amino-thienylacetamido)penicillanic acid”: in the experiment on Pseudomonas, the “antimicrobial activity” value is “do not exert any appreciable antimicrobial activity against Pseudomonas”. Besides, the “inhibition” value in experiment [2] was “inhibit the growth of various gram-positive and gram-negative bacteria”.
Regarding `CC1(C)S[C@@H]2[C@H](NC(=O)[C@H](NC(=O)c3cnc4ccc(NC(=O)OCc5ccccc5)cc4c3O)c3ccc(O)cc3)C(=O)N2[C@H]1C(=O)O` [Example 21], the MIC is 3.13 µg/mL (≈ 4.56 µM) in experiment [1]; 12.5 µg/mL (≈ 18.2 µM) in experiment [3]; 12.5 µg/mL (≈ 18.2 µM) against Escherichia coli NIHJ; 0.39 µg/mL (≈ 0.569 µM) in experiment [4]; 12.5 µg/mL (≈ 18.2 µM) against Proteus miravilis GN2425.
With `CC1(C)S[C@@H]2C(NC(=O)C(N)c3ccccc3)C(=O)N2[C@H]1C(=O)O` (stereo partly drawn) [Ampicillin, 6-(α-amino-phenylacetamido)penicillanic acid], the “antimicrobial activity” value with Pseudomonas is listed as “do not exert any appreciable antimicrobial activity against Pseudomonas”. The “inhibition” value in experiment [2] is “inhibit the growth of various gram-positive and gram-negative bacteria”.

A word on the MIC: it is the lowest concentration found to suppress growth. The low end stands for inhibition by little substance, the high end for a need for much substance.

Source of the values: patent US4003887A, “Novel penicillins and their preparation” (Sumitomo Chemical Company, Limited, priority 1972, dated 1977).
